In publication PMC5641094, “A peptide antagonist of Prep1-p160 interaction improves ceramide-induced insulin resistance in skeletal muscle cells” (Oncotarget, 2017):

Tests used:
[1] = system: IR tyrosine phosphorylation; assay: IR tyrosine phosphorylation, immunoprecipitation and Western blot; type: cell-based, rat; conditions: insulin 100nM; for effect on insulin-stimulated IR tyrosine phosphorylation: L6 cells, C2cer 10μM 18h, with or without Prep1(54-72)
Protocol: Figure 4 Prep1(54-72) peptide restores the insulin signaling inhibited by C2cer and Prep1 L6 cells were stimulated with insulin (100nM) and incubated with Prep1(54-72) in presence of C2cer at 10μM for 18h (A-B) or stable transfection of Prep1 (C-D). Protein lysates were immunoprecipitated with specific IR or IRS1 antibodies and analyzed by Western blot using antibodies for phosphotyrosines (pY) and beta-actin as loading control. Blots were detected by ECL and autoradiography. The autoradiographs are representative of three independent experiments. Asterisks denote statistically significant differences (*p<0.05; **p<0.01).
Total cell lysates were obtained and separated by SDS-PAGE. Briefly, cells were solubilized with lysis buffer containing 50mM HEPES, 150mM NaCl, 10mM EDTA, 10mM Na4P2O7, 2mM sodium orthovanadate, 50mM NaF, 1mM phenylmethylsulfonyl fluoride, 10μg/ml aprotinin, 10μg/ml leupeptin, pH 7.4, and 1% (v/v) Triton X-100. Lysates were clarified by centrifugation at 12,000g for 20 minutes at 4°C. The protein concentrations in the cell lysates were measured using a Bio-Rad DC (detergent compatible) assay. Immunoprecipitation and Western blot analysis have been performed as previously described.

[2] = system: Prep1 and p160 protein levels in L6 cells; assay: Western blot of Prep1 and p160 protein levels in L6 cells; type: cell-based, rat; conditions: for increase of Prep1 and p160 protein levels: 18h
Protocol: Figure 1 Effect of ceramides dose-response and time-course on Prep1 and p160 protein levels L6 skeletal muscle cells were treated with different concentration of C2cer (10μM and 100μM for 18h) (A) and for different time (10μM for 6h and 18h) (B). Protein lysates were analyzed by Western blot using antibodies for Prep1, p160 and for the beta-actin, as a loading control. Blots were detected by ECL and autoradiography. The autoradiographs are representative of four independent experiments. Asterisks denote statistically significant differences (*p<0.05; **p<0.01).
Figure 2 Effect of ceramides on Prep1 and p160 mRNA expression and of Prep1-p160 coprecipitation L6 cells were treated with C2cer (10μM) for 18h and Prep1 (A) or p160 (B) mRNA levels were analyzed by real-time RT-PCR analysis. Data were normalized by the amount of GAPDH mRNA, used as internal control. Bars represent the mean ± SD of three independent experiments, each performed in triplicate. (C) L6 cells were treated with cycloheximide (CHX) at 40μg/mL concentration for 18h and the lysates were analyzed by Western blot with anti-p160 and beta-actin. The autoradiograph shown is representative of three different experiments and subjected to densitometric analysis. (D) Protein lysates from L6 cells treated with C2cer as indicated, were immunoprecipitated with Prep1 antibody and immunoblotted with p160 or Prep1 antibodies. The autoradiograph shown is representative of three different experiments and subjected to densitometric analysis. Asterisks denote statistically significant differences (*p<0.05; **p<0.01).
Figure 3 Design and in vitro effects of Prep1(54-72) peptide on Prep1/p160 association (A) Binding curves of Prep1(59-72) and Prep1(54-72) peptides to p160_20-160 by ELISA-like assays. Biotinylated peptides at several concentrations were added in triplicate to a 96-well plate coated with p160_20-160 (0.1μM). Experiments were performed at least twice and the average results fitted using GraphPad Prism. […] (B) Competition binding experiments. His6-tagged-p160_20-160 at 0.25μM was incubated with Prep1(59-72) and Prep1(54-72) at concentrations ranging between 0.001÷10μM and added to a 96-well plate coated with Prep1_45-155 (0.10μM). Results are the average of three independent experiments. (C) L6 cells were incubated with increasing concentrations of the fluorescein-conjugated peptide (FITC-Prep1(54-72)) and peptide uptake was detected by FACS analysis of fluorescein-labeled cells. Bars represent the mean ± SD of four independent experiments. (D) L6 muscle cells incubated with Prep1(54-72) were stimulated with C2cer (10μM) for 18h. Protein lysates were immunoprecipitated with Prep1 antibodies and analyzed by Western blot using antibodies for p160 or for Prep1. (E) An aliquot of the lysate was used to measure protein expression of Prep1 and p160 and the beta-actin used as loading control. The blots were detected by ECL and autoradiography. The autoradiograph is representative of three independent experiments. Asterisks denote statistically significant differences (*p<0.05; **p<0.01).
L6 rat skeletal muscle cells (ATCC, Manassas, VA, USA) were cultured in DMEM supplemented with 10% FBS and 1% penicillin/streptomycin solution at 37°C in a humidified 95% air and 5% CO2 atmosphere (all vol./vol.). […]
Total cell lysates were obtained and separated by SDS-PAGE. […] The protein concentrations in the cell lysates were measured using a Bio-Rad DC (detergent compatible) assay. […]

[3] = C2cer 10μM 18h, incubated with Prep1(54-72)

Molecule	effect on insulin-stimulated IR tyrosine phosphorylation [1]	increase of Prep1 and p160 protein levels ([2]; C2cer 10μM) [%]	increase of Prep1 and p160 protein levels ([2]; C2cer 100μM) [%]	IR tyrosine phosphorylation in Prep1 overexpressing cells ([1]; Prep1L6 cells (stably transfected with Prep1 cDNA), incubated with Prep1(54-72))	decrease of ceramide-induced p160 levels [2, 3] [%]	effect on ceramide-induced Prep1 levels [2, 3]
CCCCCCCCCCCCC/C=C/[C@@H](O)[C@H](CO)NC(C)=O [C2cer, D-erythro-Sphingosine, N-Acetyl-, reference compound]	blocked	50	90	–	–	–
Ac-KQAIYRHPLFPLLALLFEK-NH2 [Prep1(54-72)]	restored	–	–	stimulated similarly to the control cells	25	did not modify
